One series concerns the target T1, human CYP11B1 enzyme (Homo sapiens, UniProt P15538).
T1 construct: the ORF of human CYP11B1 or CYP11B2 were transfected into G402 cells; expressed in transfected cells
T1 sequence (P15538 25-503): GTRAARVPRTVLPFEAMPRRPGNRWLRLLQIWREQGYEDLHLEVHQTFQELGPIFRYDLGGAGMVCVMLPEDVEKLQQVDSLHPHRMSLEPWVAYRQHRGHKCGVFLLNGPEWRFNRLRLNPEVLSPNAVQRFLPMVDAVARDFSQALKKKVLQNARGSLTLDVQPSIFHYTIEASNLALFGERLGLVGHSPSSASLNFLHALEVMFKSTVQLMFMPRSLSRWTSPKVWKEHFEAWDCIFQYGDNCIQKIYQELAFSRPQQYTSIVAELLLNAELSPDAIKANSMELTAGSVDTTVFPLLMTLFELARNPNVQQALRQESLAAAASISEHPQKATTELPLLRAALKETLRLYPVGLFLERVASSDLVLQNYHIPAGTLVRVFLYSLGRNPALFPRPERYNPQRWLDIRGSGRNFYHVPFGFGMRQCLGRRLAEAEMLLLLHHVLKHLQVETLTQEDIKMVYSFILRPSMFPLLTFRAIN
The series is described as follows: Enzyme inhibition activity assay in G402 cells stably expressing human CYP11B1 (cortisol production from 11-DC, LC/MS). The format is cell-based. As to conditions: 1 µM 11-DC, 16 hours, cortisol detected. The source says: (§1) G402 cells (ATCC, CRL 1440) are epithelioid cells isolated from the kidney of a patient with renal failure and are a type of leiomyoblastoma. For the screening of highly specific CYP11B2 inhibitors, we specifically used G402 cell lines stably expressing human CYP11B2 enzyme or human CYP11B1 enzyme for experimental development.
(§2) Construction of Stably Transfected Cell Lines: Expression plasmids containing suitable promoters, suitable drug resistance markers, and the ORF of human CYP11B1 or CYP11B2 were transfected into G402 cells using standard techniques. The cells were then screened using the specific puromycin resistance marker. Monoclonal cells stably expressing human CYP11B2 were selected for expansion, and 11-deoxycorticosterone (11-DOC) was used as the specific substrate to evaluate enzyme activity based on aldosterone production. Monoclonal cells stably expressing human CYP11B1 were selected for expansion, and 11-deoxycortisol (11-DC) was used as the specific substrate, with cortisol production as the detection target for specific enzyme activity evaluation. The G402 cell lines stably expressing CYP11B1/CYP11B2 were cultured at 37 °C, 5% CO2, 95% air in complete medium (McCoy's 5A + 10% FBS + 1% PS + 0.5 µg/mL puromycin).
(§3) Enzyme Inhibition Activity Assay: CYP11B1 G402/CYP11B2 G402 cells were spread out flatly in cell culture plates. After 24 hours, the medium was changed to an enzyme testing system (DMEM/F12 + 2.5% charcoal-stripped FCS). Small molecule inhibitors at various concentrations were added. After 1 hour, appropriate concentrations of specific substrates (1 µM 11-DOC / 1 µM 11-DC) were added and co-incubated with the cells for 16 hours. Cells were then collected, and specific products were detected using LC/MS methods with an AB SCIEX TRIPLE QUAD 5500+, CTO-40S instrument (CYP11B2 enzyme detecting aldosterone; CYP11B1 enzyme detecting cortisol).
(§4) The IC50 values of the compounds were determined based on the G402 testing system. The dose-dependent inhibition of enzyme activity was calculated by plotting the added inhibitor concentration (x-axis) against the percentage of product inhibitory activity relative to the control group (y-axis) based on product formation at various compound concentrations. The following data were then fitted using the least squares method with XLfit 5.5.0 for a four-parameter logistic curve fit: [formula] • Y-axis: Percentage of product inhibitory activity relative to the control group; • logIC50: IC50 was determined using XLFit.
(§5) The maximum enzyme activity corresponds to the amount of control product steroid/aldosterone in the absence of inhibitor, set as 100%. The minimum enzyme activity corresponds to the amount of reference control product steroid/aldosterone in the presence of inhibitor. Table 3 Inhibitory Activity of the Compounds of the Present Disclosure on CYP11B2 and CYP11B1

In a further series the target is T2, human CYP11B2 enzyme (Homo sapiens, UniProt P19099).
T2 construct: the ORF of human CYP11B1 or CYP11B2 were transfected into G402 cells; expressed in transfected cells
T2 sequence (P19099 25-503): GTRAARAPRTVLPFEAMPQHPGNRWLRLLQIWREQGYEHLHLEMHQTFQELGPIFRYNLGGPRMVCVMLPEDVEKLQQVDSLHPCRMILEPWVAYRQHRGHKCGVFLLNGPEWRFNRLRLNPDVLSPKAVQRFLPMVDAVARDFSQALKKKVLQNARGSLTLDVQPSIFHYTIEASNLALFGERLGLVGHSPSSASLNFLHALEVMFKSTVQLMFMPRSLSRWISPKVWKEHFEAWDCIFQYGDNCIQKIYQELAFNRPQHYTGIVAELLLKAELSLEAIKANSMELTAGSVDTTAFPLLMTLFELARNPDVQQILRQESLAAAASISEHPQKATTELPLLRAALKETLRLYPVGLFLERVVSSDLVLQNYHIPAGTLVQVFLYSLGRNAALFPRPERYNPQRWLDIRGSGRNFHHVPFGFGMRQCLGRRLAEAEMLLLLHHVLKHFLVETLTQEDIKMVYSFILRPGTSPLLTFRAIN
In words: Enzyme inhibition activity assay in G402 cells stably expressing human CYP11B2 (aldosterone production from 11-DOC, LC/MS). In kind it is cell-based. As to conditions: 1 µM 11-DOC, 16 hours, aldosterone detected.
Description: as §1, §2, §3, §4, §5

Series [1] can be described thus: Pharmacokinetic determination in mice after gavage administration (P.O.). In kind it is in vivo. As to conditions: male, CD-1, mouse, po, 10 mg/kg, plasma. Here is the method: Mice and rats were used as test animals to study the pharmacokinetic behavior of the compounds of the present disclosure in plasma following gavage administration (P.O.). Plasma samples were collected at specific time points, compound concentrations in plasma were detected by LC-MS/MS, and pharmacokinetic parameters were calculated to evaluate the pharmacokinetics.
• Mice, CD-1, male, Zhejiang Vital River Laboratory Animal Technology Co., Ltd. • Rats, Sprague-Dawley, male, Zhejiang Vital River Laboratory Animal Technology Co., Ltd., Shanghai Jihui Experimental Animal Breeding Co., Ltd.
After administration to mice and rats, venous blood samples of 0.03 mL and 0.2 mL, respectively, were collected at 0.0833 (IV), 0.25, 0.5, 1, 2, 4, 8, and 24 hours and placed in EDTA-K2 test tubes. Plasma was separated by centrifugation at 4 °C, 4000 g for 5 minutes and stored at -80 °C.
• 1) 10 µL of plasma sample was precipitated by adding 200 µL of acetonitrile, vortex mixed, and centrifuged for 15 minutes. • 2) The processed supernatant was diluted with water and analyzed by LC/MS/MS to determine the concentration of the test compound.
Pharmacokinetic parameters were calculated using WinNonlin 8.3. The pharmacokinetic parameters for mice P.O. are shown in Table 4, and for rats P.O. in Table 5. Cmax represents the maximum plasma concentration, T1/2 represents the terminal elimination half-life, MRTInf represents the mean residence time, and AUC represents the area under the plasma concentration-time curve. Table 4 Pharmacokinetic Parameters of the Compounds of the Present Disclosure in Mice

The text below walks through data of EP4806899A1, “FUSED RING DERIVATIVE, PREPARATION METHOD THEREFOR AND USE THEREOF IN MEDICINE” (Shanghai Qilu Pharmaceutical Research and Development …, priority 2023, dated 2025).

pIC50: −log10 of the molar value.

For `[2H]C([2H])([2H])OC(=O)N[C@@H]1CCOc2c(-c3cc(Cl)c4c(ccc(=O)n4C)c3)cncc21` [Compound A54], the negative logarithm of the IC50 (pIC50) (in general, the negative decadic logarithm of the IC50, by convention in mol/L) is 5.78 against human CYP11B1 enzyme and 7.87 on human CYP11B2 enzyme.
In the same order, the values of `COC(=O)N[C@@H]1CCOc2c(-c3cc(F)c4c(ccc(=O)n4C)c3)cncc21` [Compound A49] are 5.66 and 7.83.
On the same counts, the results for `[2H]C([2H])([2H])OC(=O)N[C@@H]1CCCc2c(-c3cc(F)c4c(ccc(=O)n4C)c3)cncc21` [Compound A48] are 6.15 and 8.23.
On the same counts, the results for `[2H]C([2H])([2H])OC(=O)N[C@@H]1CCOc2c(-c3ccc4c(ccc(=O)n4C)c3)cncc21` [Compound A39] are 5.84 and 8.00.
For `CN(C)C(=O)N[C@@H]1CCCc2c(-c3ccc4c(c3)COC(=O)N4C)cncc21` [Compound A33], the pIC50 is 6.51 at human CYP11B1 enzyme and 8.01 on human CYP11B2 enzyme.
In the same order, the values of `[2H]C([2H])([2H])NC(=O)N[C@@H]1CCOc2c(-c3ccc4c(c3)CCC(=O)N4C)cncc21` [Compound A11] are 5.90 and 8.14.
On the same counts, the results for `CCC(=O)N[C@@H]1CC=Cc2c(-c3ccc4c(c3)CCC(=O)N4C)cncc21` [Compound A04-P1] are 6.61 and 8.25.
In the same order, the values of `COC(=O)N[C@@H]1CCCc2c(-c3cc(F)c4c(ccc(=O)n4C)c3)cncc21` [Compound A47] are 6.14 and 8.16.
Take `[2H]C([2H])([2H])OC(=O)N[C@@H]1CCOc2c(-c3ccc4c(c3)COC(=O)N4C)cncc21` [Compound A40]: the pIC50 at human CYP11B1 enzyme is 6.31; against human CYP11B2 enzyme it was 8.21.
In the same order, the values of `COC(=O)N[C@@H]1CCCc2c(-c3cc(Cl)c4c(ccc(=O)n4C)c3)cncc21` [Compound A51] are 6.20 and 8.36.
In the same order, the values of `[2H]C([2H])([2H])OC(=O)N[C@@H]1CCCc2c(-c3cc(Cl)c4c(ccc(=O)n4C)c3)cncc21` [Compound A52] are 6.10 and 8.23.
For `CN1C(=O)CCc2cc(-c3cncc4c3CCC[C@H]4N3CCOC3=O)ccc21` [Compound D12], the negative-log IC50 (pIC50) at human CYP11B1 enzyme is 6.44; at human CYP11B2 enzyme, 8.14.
On the same counts, the results for `[2H]C([2H])([2H])NC(=O)N[C@@H]1CCOc2c(-c3ccc4c(c3)COC(=O)N4C)cncc21` [Compound A18] are 6.29 and 8.12.
In the same order, the values of `[2H]C([2H])([2H])N(C(=O)N[C@@H]1CCCc2c(-c3ccc4c(c3)CCC(=O)N4C)cncc21)C([2H])([2H])[2H]` [Compound D16] are 5.91 and 7.71.
On the same counts, the results for `CNC(=O)N[C@@H]1CCCc2c(-c3ccc4c(c3)COC(=O)N4C)cncc21` [Compound A34] are 6.53 and 8.12.
As for `C[C@H](F)C(=O)N[C@@H]1CCCc2c(-c3ccc4c(c3)CCC(=O)N4C)cncc21` [Compound D07-P2], the results for the negative-log IC50 (pIC50) at human CYP11B1 enzyme and against human CYP11B2 enzyme were 5.79 and 7.93, respectively.
As to `[2H]C([2H])([2H])NC(=O)N[C@@H]1CCCc2c(-c3cc(F)c4c(ccc(=O)n4C)c3)cncc21` [Compound A22], the negative logarithm of the IC50 (pIC50) is 5.92 against human CYP11B1 enzyme and 8.12 against human CYP11B2 enzyme.
In the same order, the values of `CCC(=O)N[C@@H]1CCCc2c(-c3ccc4c(c3)CNC(=O)N4C)cncc21` [Compound C06] are 5.62 and 7.51.
On the same counts, the results for `CN(C)C(=O)N[C@@H]1CCCc2c(-c3ccc4c(ccc(=O)n4C)c3)cncc21` [Compound A23] are 5.72 and 7.90.
On the same counts, the results for `[2H]C([2H])([2H])NC(=O)N[C@@H]1CCCc2c(-c3ccc4c(c3)OCC(=O)N4C)cncc21` [Compound A25] are 5.67 and 7.83.
With `COC(=O)N[C@@H]1CCOc2c(-c3ccc4c(ccc(=O)n4C)c3)cncc21` [Compound A42], the pIC50 against human CYP11B1 enzyme is 5.77; at human CYP11B2 enzyme, 7.89.
In the same order, the values of `CNC(=O)N[C@@H]1CCCc2c(-c3ccc4c(c3)OCC(=O)N4C)cncc21` [Compound A24] are 5.81 and 7.93.
Take `[2H]C([2H])([2H])NC(=O)N[C@@H]1CCCc2c(-c3ccc4c(c3)COC(=O)N4C)cncc21` [Compound A16]: the pIC50 on human CYP11B2 enzyme is 8.02. In series [1], the maximum concentration (Cmax) (as a rule, the peak of the concentration-time curve) was 51.7 µM; the mean residence time (MRT inf) (usually a mean duration of stay, worked out from the concentration-time curve) was determined as 2.37 h; the half-life (as a rule, how long it takes for the measured level to halve) is 1.07 h. The AUC(0-t) in series [1] (read-out: AUC0-24) is 184 µM·h.
As for `CNC(=O)N[C@@H]1CCOc2c(-c3ccc4c(c3)cc(C#N)n4C)cncc21` [Compound A37], the pIC50 is 6.51 on human CYP11B1 enzyme and 8.60 on human CYP11B2 enzyme.
In the same order, the values of `CN(C)C(=O)N[C@@H]1CCOc2c(-c3ccc4c(c3)CCC(=O)N4C)cncc21` [Compound A12] are 5.51 and 7.90.
In the same order, the values of `CN(C)C(=O)N[C@@H]1CCCc2c(-c3ccc4c(c3)CCC(=O)N4C)cncc21` [Compound D11] are 5.98 and 8.13.
On the same counts, the results for `CNC(=O)N[C@@H]1CCCc2c(-c3ccc4c(ccc(=O)n4C)c3)cncc21` [Compound A21] are 6.13 and 8.03.
For the molecule `CCC(=O)N[C@@H]1CCCc2c(-c3ccc4c(c3)cc(C#N)n4C)cncc21` [Compound C36], the negative-log IC50 (pIC50) at human CYP11B1 enzyme was 6.58; on human CYP11B2 enzyme it was 8.85.
Turning to `[2H]C([2H])([2H])OC(=O)N[C@@H]1CCCc2c(-c3ccc4c(c3)COC(=O)N4C)cncc21` [Compound A28], the pIC50 is 6.95 on human CYP11B1 enzyme and 8.44 against human CYP11B2 enzyme.
